Reference: the NIST ThermoML archive (doi:10.1021/acs.jced.9b00310)
Numbers after ± are expanded uncertainties.

What was measured:
[1] = Molar enthalpy of transition or fusion; conditions: Crystal; DSC
[2] = Crystal; DSC

Molar enthalpy of transition or fusion [1]: 5.69 ± 0.167 kcal/mol
Triple point temperature [2]: 409.5 ± 1 K
SMILES: CC(=O)c1c(C)c([N+](=O)[O-])c(C(C)(C)C)c([N+](=O)[O-])c1C [3',5'-dinitro-2',6'-dimethyl-4'-tert-butylacetophenone]
